{"source": "patent US5831026A", "about": "“Process for purifying factor VIII” (Pharmacia & Upjohn AB, priority 1994, dated 1998)", "tested_on": "factor VIII", "test": "Activity of factor VIII after addition of complexing agent to eluted solution from SP Sepharose FF, COATEST chromogenic assay", "format": "biochemical", "details": "for Factor VIII activity (IU/ml) / Factor VIII activity (%): Example 8; for Factor VIII activity (%): 0 h without additive = 100", "procedure": "Tests without EDTA present were carried out for comparison.\n(§1) A conditioned medium (containing human serum albumin) from a different harvest than the previous Examples, was clarified and buffered with NH4 Ac. […] After elution, various amounts of EDTA were added to the resulting solution. Tests without EDTA present were carried out for comparison. The procoagulant activity of factor VIII was determined after storage at ambient temperature for up to 246 hours, in accordance to the procedure described in Example 5.\nas §1, with “28” for “246”\nA conditioned medium (containing human serum albumin) from a different harvest than the previous Examples, was clarified and buffered with NH4 Ac. The resulting solution was loaded onto a column containing SP SEPHAROSE® FF. This cation-exchange chromatography step was performed at 10° C. […] After elution, EDTA or 1,10-Phenanthroline were added to the resulting solution.", "key": {"[1]": {"details": "3 mM EDTA, incubation 4.5 h ambient"}, "[2]": {"details": "3 mM EDTA, incubation 7.5 h ambient"}, "[3]": {"details": "3 mM EDTA, incubation 24 h ambient"}}}
{"smiles": "O=C(O)CN(CCN(CC(=O)O)CC(=O)O)CC(=O)O", "note": "[EDTA, ethylenediamine tetraacetic acid]", "values": [{"measurement": "Activity of factor VIII in % of the initial value", "setting": "Example 6 (0.4M NaCl eluate), 0.01 mM EDTA, storage 0 h ambient", "result": 100, "unit": "%"}, {"measurement": "Activity of factor VIII in % of the initial value", "setting": "Example 6 (0.4M NaCl eluate), 0.01 mM EDTA, storage 2.5 h ambient", "result": 77, "unit": "%"}, {"measurement": "Activity of factor VIII in % of the initial value", "setting": "Example 6 (0.4M NaCl eluate), 0.01 mM EDTA, storage 5 h ambient", "result": 59, "unit": "%"}, {"measurement": "Activity of factor VIII in % of the initial value", "setting": "Example 6 (0.4M NaCl eluate), 0.01 mM EDTA, storage 10 h ambient", "result": 32, "unit": "%"}, {"measurement": "Activity of factor VIII in % of the initial value", "setting": "Example 6 (0.4M NaCl eluate), 0.01 mM EDTA, storage 24 h ambient", "result": 1.9, "unit": "%"}, {"measurement": "Activity of factor VIII in % of the initial value", "setting": "Example 6 (0.4M NaCl eluate), 0.03 mM EDTA, storage 0 h ambient", "result": 100, "unit": "%"}, {"measurement": "Activity of factor VIII in % of the initial value", "setting": "Example 6 (0.4M NaCl eluate), 0.03 mM EDTA, storage 2.5 h ambient", "result": 76, "unit": "%"}, {"measurement": "Activity of factor VIII in % of the initial value", "setting": "Example 6 (0.4M NaCl eluate), 0.03 mM EDTA, storage 5 h ambient", "result": 59, "unit": "%"}, {"measurement": "Activity of factor VIII in % of the initial value", "setting": "Example 6 (0.4M NaCl eluate), 0.03 mM EDTA, storage 10 h ambient", "result": 33, "unit": "%"}, {"measurement": "Activity of factor VIII in % of the initial value", "setting": "Example 6 (0.4M NaCl eluate), 0.03 mM EDTA, storage 24 h ambient", "result": 2.1, "unit": "%"}, {"measurement": "Activity of factor VIII in % of the initial value", "setting": "Example 6 (0.4M NaCl eluate), 0.1 mM EDTA, storage 0 h ambient", "result": 100, "unit": "%"}, {"measurement": "Activity of factor VIII in % of the initial value", "setting": "Example 6 (0.4M NaCl eluate), 0.1 mM EDTA, storage 2.5 h ambient", "result": 82, "unit": "%"}, {"measurement": "Activity of factor VIII in % of the initial value", "setting": "Example 6 (0.4M NaCl eluate), 0.1 mM EDTA, storage 5 h ambient", "result": 65, "unit": "%"}, {"measurement": "Activity of factor VIII in % of the initial value", "setting": "Example 6 (0.4M NaCl eluate), 0.1 mM EDTA, storage 10 h ambient", "result": 43, "unit": "%"}, {"measurement": "Activity of factor VIII in % of the initial value", "setting": "Example 6 (0.4M NaCl eluate), 0.1 mM EDTA, storage 24 h ambient", "result": 4.6, "unit": "%"}, {"measurement": "Activity of factor VIII in % of the initial value", "setting": "Example 6 (0.4M NaCl eluate), 0.3 mM EDTA, storage 0 h ambient", "result": 100, "unit": "%"}, {"measurement": "Activity of factor VIII in % of the initial value", "setting": "Example 6 (0.4M NaCl eluate), 0.3 mM EDTA, storage 2.5 h ambient", "result": 79, "unit": "%"}, {"measurement": "Activity of factor VIII in % of the initial value", "setting": "Example 6 (0.4M NaCl eluate), 0.3 mM EDTA, storage 5 h ambient", "result": 71, "unit": "%"}, {"measurement": "Activity of factor VIII in % of the initial value", "setting": "Example 6 (0.4M NaCl eluate), 0.3 mM EDTA, storage 10 h ambient", "result": 55, "unit": "%"}, {"measurement": "Activity of factor VIII in % of the initial value", "setting": "Example 6 (0.4M NaCl eluate), 0.3 mM EDTA, storage 24 h ambient", "result": 11, "unit": "%"}, {"measurement": "Activity of factor VIII in % of the initial value", "setting": "Example 6 (0.4M NaCl eluate), 1.0 mM EDTA, storage 0 h ambient", "result": 100, "unit": "%"}, {"measurement": "Activity of factor VIII in % of the initial value", "setting": "Example 6 (0.4M NaCl eluate), 1.0 mM EDTA, storage 2.5 h ambient", "result": 90, "unit": "%"}, {"measurement": "Activity of factor VIII in % of the initial value", "setting": "Example 6 (0.4M NaCl eluate), 1.0 mM EDTA, storage 5 h ambient", "result": 97, "unit": "%"}, {"measurement": "Activity of factor VIII in % of the initial value", "setting": "Example 6 (0.4M NaCl eluate), 1.0 mM EDTA, storage 10 h ambient", "result": 97, "unit": "%"}, {"measurement": "Activity of factor VIII in % of the initial value", "setting": "Example 6 (0.4M NaCl eluate), 1.0 mM EDTA, storage 24 h ambient", "result": 75, "unit": "%"}, {"measurement": "Activity of factor VIII in % of the initial value", "setting": "Example 6 (0.4M NaCl eluate), 1.0 mM EDTA, storage 48 h ambient", "result": 54, "unit": "%"}, {"measurement": "Activity of factor VIII in % of the initial value", "setting": "Example 6 (0.4M NaCl eluate), 3.0 mM EDTA, storage 0 h ambient", "result": 100, "unit": "%"}, {"measurement": "Activity of factor VIII in % of the initial value", "setting": "Example 6 (0.4M NaCl eluate), 3.0 mM EDTA, storage 2.5 h ambient", "result": 92, "unit": "%"}, {"measurement": "Activity of factor VIII in % of the initial value", "setting": "Example 6 (0.4M NaCl eluate), 3.0 mM EDTA, storage 5 h ambient", "result": 102, "unit": "%"}, {"measurement": "Activity of factor VIII in % of the initial value", "setting": "Example 6 (0.4M NaCl eluate), 3.0 mM EDTA, storage 10 h ambient", "result": 104, "unit": "%"}, {"measurement": "Activity of factor VIII in % of the initial value", "setting": "Example 6 (0.4M NaCl eluate), 3.0 mM EDTA, storage 24 h ambient", "result": 100, "unit": "%"}, {"measurement": "Activity of factor VIII in % of the initial value", "setting": "Example 6 (0.4M NaCl eluate), 3.0 mM EDTA, storage 48 h ambient", "result": 96, "unit": "%"}, {"measurement": "Activity of factor VIII in % of the initial value", "setting": "Example 6 (0.4M NaCl eluate), 3.0 mM EDTA, storage 72 h ambient", "result": 80, "unit": "%"}, {"measurement": "Activity of factor VIII in % of the initial value", "setting": "Example 6 (0.4M NaCl eluate), 3.0 mM EDTA, storage 100 h ambient", "result": 91, "unit": "%"}, {"measurement": "Activity of factor VIII in % of the initial value", "setting": "Example 6 (0.4M NaCl eluate), 3.0 mM EDTA, storage 246 h ambient", "result": 72, "unit": "%"}, {"measurement": "Activity of factor VIII in % of the initial value", "setting": "Example 7 (0.8M NaCl eluate), 1 mM EDTA, storage 0 h ambient", "result": 100, "unit": "%"}, {"measurement": "Activity of factor VIII in % of the initial value", "setting": "Example 7 (0.8M NaCl eluate), 1 mM EDTA, storage 5 h ambient", "result": 119, "unit": "%"}, {"measurement": "Activity of factor VIII in % of the initial value", "setting": "Example 7 (0.8M NaCl eluate), 1 mM EDTA, storage 28 h ambient", "result": 64, "unit": "%"}, {"measurement": "Activity of factor VIII in % of the initial value", "setting": "Example 7 (0.8M NaCl eluate), 2 mM EDTA, storage 0 h ambient", "result": 100, "unit": "%"}, {"measurement": "Activity of factor VIII in % of the initial value", "setting": "Example 7 (0.8M NaCl eluate), 2 mM EDTA, storage 5 h ambient", "result": 120, "unit": "%"}, {"measurement": "Activity of factor VIII in % of the initial value", "setting": "Example 7 (0.8M NaCl eluate), 2 mM EDTA, storage 28 h ambient", "result": 100, "unit": "%"}, {"measurement": "Activity of factor VIII in % of the initial value", "setting": "Example 7 (0.8M NaCl eluate), 3 mM EDTA, storage 0 h ambient", "result": 100, "unit": "%"}, {"measurement": "Activity of factor VIII in % of the initial value", "setting": "Example 7 (0.8M NaCl eluate), 3 mM EDTA, storage 5 h ambient", "result": 120, "unit": "%"}, {"measurement": "Activity of factor VIII in % of the initial value", "setting": "Example 7 (0.8M NaCl eluate), 3 mM EDTA, storage 28 h ambient", "result": 90, "unit": "%"}, {"measurement": "Activity of factor VIII in % of the initial value", "setting": "Example 7 (0.8M NaCl eluate), 4 mM EDTA, storage 0 h ambient", "result": 100, "unit": "%"}, {"measurement": "Activity of factor VIII in % of the initial value", "setting": "Example 7 (0.8M NaCl eluate), 4 mM EDTA, storage 5 h ambient", "result": 109, "unit": "%"}, {"measurement": "Activity of factor VIII in % of the initial value", "setting": "Example 7 (0.8M NaCl eluate), 4 mM EDTA, storage 28 h ambient", "result": 103, "unit": "%"}, {"measurement": "Activity of factor VIII in % of the initial value", "setting": "Example 7 (0.8M NaCl eluate), 5 mM EDTA, storage 0 h ambient", "result": 100, "unit": "%"}, {"measurement": "Activity of factor VIII in % of the initial value", "setting": "Example 7 (0.8M NaCl eluate), 5 mM EDTA, storage 5 h ambient", "result": 116, "unit": "%"}, {"measurement": "Activity of factor VIII in % of the initial value", "setting": "Example 7 (0.8M NaCl eluate), 5 mM EDTA, storage 28 h ambient", "result": 91, "unit": "%"}, {"measurement": "Factor VIII activity (IU/ml)", "setting": "[1]", "result": 813, "unit": "IU/ml"}, {"measurement": "Factor VIII activity (%)", "setting": "[1]", "result": 92, "unit": "%"}, {"measurement": "Factor VIII activity (IU/ml)", "setting": "[2]", "result": 862, "unit": "IU/ml"}, {"measurement": "Factor VIII activity (%)", "setting": "[2]", "result": 97, "unit": "%"}, {"measurement": "Factor VIII activity (IU/ml)", "setting": "[3]", "result": 763, "unit": "IU/ml"}, {"measurement": "Factor VIII activity (%)", "setting": "[3]", "result": 86, "unit": "%"}]}
